# Source: article PMC12655351, “Synthesis and Anticancer Activity Evaluation of New 5-((5-Nitrofuran-2-yl)allylidene)-2-thioxo-4-thiazolidinones” (Pharmaceuticals, 2025)
# Experiments:
# Assay type in all cases: cell-based, human
# [1] = tested on: Bax protein in MDA-MB-231 cells; test: anti-Bax antibody flow cytometry; conditions: MDA-MB-231, concentration not stated (5 or 10 µM), 24 h
# Experimental: (§1) The effect of the tested compounds on the intrinsic mitochondrial pathway of programmed cell death was further assessed. For this purpose, the concentration of the proapoptotic Bax protein from the Bcl-2 family was examined. The concentration of this protein was analyzed in breast cancer cells after treatment with novel compounds at concentrations of 1 and 5 µM for the MCF-7 line and 5 and 10 µM for the MDA-MB-231 line.
# (§2) An anti-Bax FITC-conjugated antibody was applied to evaluate the effect of tested compounds on the concentration of Bax protein in this experiment. First, MCF-7 and MDA-MB-231 cells were seeded into 6-well plates at 5 × 10^5 cells per well. Test compounds 2b, 12b, and 14b were then added at concentrations of 1 and 5 µM and 5 and 10 µM for MCF-7 and MDA-MB-231, respectively. The concentration of doxorubicin as a reference compound was 1 and 5 µM for both lines. After 24 h of incubation, cells were harvested, centrifuged, washed with 1 mL of PBS, and then fixed with 4% paraformaldehyde for 15 min at RT. After removal of the paraformaldehyde, cells were washed with PBS, then resuspended in 0.5 mL of cold 90% methanol, and frozen at −20 °C. […] The prepared samples were read immediately using the BD FACS Canto II flow cytometer (Becton Dickinson Biosciences, San Jose, CA, USA).
# [2] = tested on: caspase-9 in MDA-MB-231 cells; test: FLICA caspase-9 flow cytometry; conditions: MDA-MB-231, 24 h, concentration not given
# Experimental: To further analyze the compounds’ effects on the intrinsic pathway of the process of programmed cell death, it was decided to assess the expression of initiator caspase-9 on MCF-7 and MDA-MB-231 cell lines after 24 h of treatment using the flow cytometry method. Caspase-9 is an initiator caspase that directly activates executive caspase-3; as such, it has a significant effect on apoptosis. […] For the MDA-MB-231 line, the results were even more prominent, with every tested compound and concentration displaying a notable increase in cells with active caspase-9.
# To determine the effects of the novel compounds on the caspase-9 activity, the FLICA Caspase-9 Assay Kit was applied (ImmunoChemistry Technologies, Bloomington, MN, USA). MCF-7 and MDA-MB-231 cells were seeded on 6-well plates (5 × 10^5 cells per well) and incubated for 24 h. Next, they were treated with tested compounds 2b, 12b, and 14b in a concentration of 1 and 5 µM for the MCF-7 cell line and 5 and 10 µM for the MDA-MB-231 cell line and the reference drug, doxorubicin hydrochloride, in a concentration of 1 and 5 µM for both lines for 24 h. […] Prepared samples were evaluated by a BD FACSCanto II flow cytometer (Becton Dickinson Biosciences, San Jose, CA, USA). For each sample, 1 × 10^4 events were analyzed. […]
# [3] = tested on: Bax protein in MCF-7 cells; test: anti-Bax antibody flow cytometry; conditions: MCF-7, 5 μM, 24 h
# Experimental: as §1, §2
# [4] = tested on: cytochrome C in MCF-7 cells; test: cytochrome C ELISA; conditions: MCF-7, 5 μM, 24 h
# Experimental: (§3) The influence of the examined compounds on the level of cytochrome C, one of the crucial proteins of the intrinsic pathway of programmed cell death, was assessed. This protein is released into the cytoplasm from the mitochondrial intermembrane space as a result of the decrease in mitochondrial membrane potential. […] The most significant result was reported for compound 14b at a concentration of 5 μM in the MCF-7 cell line and 10 µM in the MDA-MB-231 cell line, where the concentration of cytochrome C was 9.54 ng/mL and 15.26 ng/mL, respectively (Figure 10).
# (§4) Using a SimpleStep ELISA kit (Abcam, Cambridge, UK), we determined the levels of cytochrome C and caspase-3 in cells’ lysates with 2b, 12b, and 14b (1 and 5 μM for the MCF-7 cell line and 5 and 10 μM for the MDA-MB-231) and doxorubicin in concentrations of 1 and 5 μM for both lines after 24 h incubation. Assays were performed according to the manufacturer’s protocols.
# [5] = tested on: cytochrome C in MDA-MB-231 cells; test: cytochrome C ELISA; conditions: MDA-MB-231, 10 μM, 24 h
# Experimental: as §3, §4
# [6] = tested on: mitochondrial membrane potential (ΔΨm) of MCF-7 breast cancer cells; test: JC-1 flow cytometry; conditions: 24 h
# Experimental: (§5) This method involves marking cells with fully functional mitochondria with red fluorescence due to the accumulation of the dye in hyperpolarized mitochondrial membrane. In case of a damaged membrane, the dye decomposes into monomers, emitting green fluorescence. […] For MDA-MB-231 cells, the values were as follows: 4.25% for 5 μM and 20.95% for 10 μM concentration. The obtained results signify the compound’s capability to decrease mitochondrial potential on both cell lines at a higher concentration (Figure 6).
# (§6) The mitochondrial membrane potential (ΔΨm) was analyzed by using the JC-1 MitoScreen kit (BD Biosciences, San Diego, CA, USA). The tested compounds and reference drug were used in 1 and 5 µM concentrations on the MCF-7 cell line and 5 and 10 µM on the MDA-MB-231 cell line. After 24 h of incubation with the tested compounds, the assay was performed as described in the literature. The assay was performed using a flow cytometer (BD FACSCanto II, Becton Dickinson Biosciences Systems, San Jose, CA, USA), and results were obtained using FACSDiva software (version 6.1.3, BD Biosciences Systems, San Jose, CA, USA).
# [7] = tested on: mitochondrial membrane potential (ΔΨm) of MDA-MB-231 breast cancer cells; test: JC-1 flow cytometry; conditions: 24 h
# Experimental: as §5, §6
SMILES,Bax-positive cell population [1] [%],cells with active caspase-9 [2] [%],Bax-positive cell population [3] [%],concentration of cytochrome C [4] [ng/mL],concentration of cytochrome C [5] [ng/mL],"Decreased Δψ (decrease in mitochondrial potential) ([6]; MCF-7, 1 μM) [%]","Decreased Δψ (decrease in mitochondrial potential) ([6]; MCF-7, 5 μM) [%]","Decreased Δψ (decrease in mitochondrial potential) ([7]; MDA-MB-231, 5 μM) [%]","Decreased Δψ (decrease in mitochondrial potential) ([7]; MDA-MB-231, 10 μM) [%]"
"CC(C(=O)O)N1C(=O)/C(=C/C=C/c2ccc([N+](=O)[O-])o2)SC1=S (stereo not drawn) [2b, 2-((Z)-5-((E)-3-(5-Nitrofuran-2-yl)allylidene)-4-oxo-2-thioxothiazolidin-3-yl)propanoic acid]",26.33,83.95,,,,,,,
"O=C(O)CCCCCN1C(=O)/C(=C/C=C/c2ccc([N+](=O)[O-])o2)SC1=S [14b, 6-((Z)-5-((E)-3-(5-nitrofuran-2-yl)allylidene)-4-oxo-2-thioxothiazolidin-3-yl)hexanoic acid]",,,14.67,9.54,15.26,8.75,20.25,4.25,20.95
